The results in this text go back to ChEMBL document CHEMBL1141681, “Bradykinin B1 receptor antagonists: an alpha-hydroxy amide with an improved metabolism profile” (Bioorg Med Chem Lett, 2008).

Structures are written as SMILES.

The target in one data set is Rattus norvegicus. Kind of data set: Ex vivo displacement of [35S]N-{2-[4-(4,5-dihydro-1H-imidazol-2-yl)phenyl]ethyl}-2-[(2R)-1-(2-naphthylsulfonyl)-3-oxo-1,2,3,4-tetrahydroquinoxalin-2-yl]acetamide from human bradykinin B1 receptor expressed in iv dosed Sprague-Dawley rat brain by liquid scintillation counting. The data set is classed as functional, organism-based. For orientation: Loss of bound radioactivity is the signal in a displacement assay; it reports binding, not function.

Data set [1] in a line: (§1) Apparent permeability across pig L-MDR1 cells overexpressing human MDR1 at 5 uM after 3 hrs by LC/MS/MS analysis. It is filed as ADME, cell-based, Sus scrofa. The conditions noted are these: l-mdr1, 3 h, 5 µM, 3 h.
The next data set has as its target T1, B1 bradykinin receptor (Homo sapiens, UniProt P46663).
T1 sequence (P46663 whole entry): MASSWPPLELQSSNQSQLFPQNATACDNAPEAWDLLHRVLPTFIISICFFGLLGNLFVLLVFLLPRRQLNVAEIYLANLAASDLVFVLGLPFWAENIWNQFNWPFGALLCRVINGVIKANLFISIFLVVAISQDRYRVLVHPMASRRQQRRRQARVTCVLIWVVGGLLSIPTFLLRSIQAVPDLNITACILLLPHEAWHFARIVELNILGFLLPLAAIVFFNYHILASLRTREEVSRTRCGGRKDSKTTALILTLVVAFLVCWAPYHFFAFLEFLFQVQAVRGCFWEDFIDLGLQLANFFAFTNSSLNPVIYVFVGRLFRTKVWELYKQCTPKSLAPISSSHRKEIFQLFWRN
As to the kind of experiment: Displacement of [3H]des-arg10leu9kallidin from human bradykinin B1 receptor expressed in CHO cells by Wallac beta-plate scintillation counting. It is filed as cell-based.

The next data set has as its system Canis familiaris. As to the kind of experiment: (§2) Half life in mongrel dog at 3 mg/kg, po and 1 mg/kg, iv. The data set is classed as ADME, organism-based, Canis lupus familiaris. The conditions noted are these: in vivo.
The nature of data set [2]: Oral bioavailability in Sprague-Dawley rat at 10 mg/kg. It is filed as ADME, organism-based. The conditions noted are these: in vivo.
A short description of data set [3]: Oral bioavailability in mongrel dog at 3 mg/kg. The data set is classed as ADME, organism-based, Canis lupus familiaris. The following applies: in vivo.
Data set [4] is described as follows: Half life in Sprague-Dawley rat at 10 mg/kg, po and 2 mg/kg, iv. It is filed as ADME, organism-based. The following applies: in vivo.
A short description of data set [5]: Ratio of permeability from basolateral to apical side to apical to basolateral side in pig L-MDR1 cells overexpressing human MDR1 at 5 uM after 3 hrs by LC/MS/MS analysis. The data set is classed as ADME, cell-based, Sus scrofa. The conditions noted are these: l-mdr1, 3 h.
A short description of data set [6]: Ratio of drug level in brain to plasma of african green monkey at 2 mg/kg, iv after 30 mins by LC/MS/MS analysis. The data set is classed as ADME, organism-based. On the set-up: dose 2 mg/kg, route intravenous. The following applies: chlorocebus aethiops, brain and plasma.
A short description of data set [7]: Clearance in Sprague-Dawley rat at 10 mg/kg, po and 2 mg/kg, iv. The conditions noted are these: in vivo. The data set is classed as ADME, organism-based.
A further data set deals with MDR1 (human). The description is as §1. The data set is classed as ADME, cell-based, Sus scrofa. The conditions noted are these: LLC-PK1.
Data set [8] in a line: Clearance in mongrel dog at 3 mg/kg, po and 1 mg/kg, iv. The conditions noted are these: in vivo. It is filed as ADME, organism-based, Canis lupus familiaris.
The nature of data set [9]: as §2. It is filed as ADME, organism-based, Canis lupus familiaris. The following applies: mongrel, in vivo.

Usually Ki stands for a measure of affinity in units of concentration, obtained from inhibition or displacement. The term Papp denotes a coefficient for how fast a substance crosses the barrier. In general, bioavailability refers to the share of a dose that reaches the circulation, judged against a reference dose that is usually intravenous. The term half-life denotes the time in which the quantity being followed falls by half. As usually defined, the Kp is the ratio of the level in a tissue or fluid to that in plasma or blood. `CC(NC(=O)C1(O)CCC(F)(F)C1)c1ncc(-c2cc(Cl)cc(F)c2-c2nnn(C)n2)cc1F` (stereo in doubt; 11g): the Ki at Rattus norvegicus was determined as 120 nM; at B1 bradykinin receptor it was 0.67 nM. Also, the Papp in [1] worked out at 32 ×10⁻⁶ cm/s. In the data set with Canis familiaris, the t1/2 came to 19 h. Moreover, the figures for the bioavailability in data set [2] and in data set [3] were 96% and 85%, respectively. Further, in data set [4], the half-life was 4.1 h. Moreover, the Ratio in data set [5] (3 h) came to 1.9. In addition, the Kp at 0.5 h in data set [6] was determined as 0.55. This molecule also came in with a clearance in data set [7] of 5.2 mL/min/kg.
Take `C[C@@H](NC(=O)C1(O)CCC(F)(F)CC1)c1ncc(-c2cc(Cl)cc(F)c2-c2nnn(C)n2)cc1F`: the results for the Ki at Rattus norvegicus and at B1 bradykinin receptor were 140 nM and 0.41 nM, respectively. In the data set on MDR1 (human), the Papp at 3 h, 5 µM stood at 31 ×10⁻⁶ cm/s. Besides, the clearance was 1 mL/min/kg in data set [8] and 2.2 mL/min/kg in [7]. Moreover, the figures for the half-life in [9] and in [4] were 20.3 h and 5.6 h, respectively. Also, the results for the bioavailability in data set [2] and in [3] were 62% and 91%, respectively. Further, in [5], the Ratio turned out to be 2. The partition ratio (Kp) at 0.5 h in [6] is 0.63.
For the molecule `C[C@@H](NC(=O)C1(O)CCCC1)c1ncc(-c2cc(Cl)cc(F)c2-c2nnn(C)n2)cc1F`, the results for the Ki on Rattus norvegicus and at B1 bradykinin receptor were 214 nM and 0.48 nM, respectively. Further, in the data set with MDR1 (human), the Papp at 3 h, 5 µM came to 29 ×10⁻⁶ cm/s. In addition, the values for the clearance in data set [8] and in [7] were 0.6 mL/min/kg and 10 mL/min/kg, respectively. Also, the half-life in [9] is 4.7 h; in [4], 5.5 h. Further, the bioavailability in [2] worked out at 26%. Further, the Ratio in [5] was determined as 2.1.
Take `C[C@@H](NC(=O)C1(O)CCSC1)c1ncc(-c2cc(Cl)cc(F)c2-c2nnn(C)n2)cc1F` (stereo partly specified): the Papp at 3 h, 5 µM in the data set with MDR1 (human) came to 31 ×10⁻⁶ cm/s. On B1 bradykinin receptor, this molecule returned a Ki of 0.39 nM. For the same molecule, the clearance in data set [8] was 3.2 mL/min/kg. In data set [9], this molecule gave a half-life of 5.4 h. Further, in [5], the Ratio was 2.9.
For the molecule `C[C@@H](NC(=O)C1(O)CCS(=O)(=O)C1)c1ncc(-c2cc(Cl)cc(F)c2-c2nnn(C)n2)cc1F` (stereo partly specified), in the data set on MDR1 (human), the Papp at 3 h, 5 µM was found to be 22 ×10⁻⁶ cm/s. At B1 bradykinin receptor, this molecule displayed a Ki of 0.69 nM. The clearance in data set [8] came out at 0.5 mL/min/kg. The molecule further gave a half-life in data set [9] of 9.9 h. The Ratio in data set [5] is reported as 29.
As for `C[C@@H](NC(=O)C1(O)CCOCC1)c1ncc(-c2cc(Cl)cc(F)c2-c2nnn(C)n2)cc1F`, in the data set with MDR1 (human), the apparent permeability (Papp) at 3 h, 5 µM was found to be 24 ×10⁻⁶ cm/s. The molecule further returned a Ki on B1 bradykinin receptor of 0.96 nM. In addition, in [5], the Ratio is recorded as 8.2.
Turning to `C[C@@H](NC(=O)C1(O)CCC(=O)C1)c1ncc(-c2cc(Cl)cc(F)c2-c2nnn(C)n2)cc1F` (stereo partly specified), the Papp at 3 h, 5 µM in the data set on MDR1 (human) worked out at 31 ×10⁻⁶ cm/s. Also, at B1 bradykinin receptor, the Ki was found to be 0.67 nM. This molecule also showed a clearance in [8] of 0.3 mL/min/kg. Besides, the half-life in data set [9] is 9.8 h. Also, the Ratio in [5] is given as 16.
For `CC(NC(=O)C1(O)CCC(F)(F)C1)c1ncc(-c2cc(Cl)cc(F)c2-c2nnn(C)n2)cc1F` (stereo in doubt; 11f), the Papp at 3 h, 5 µM in the data set with MDR1 (human) stood at 29 ×10⁻⁶ cm/s. This molecule also displayed a Ki at B1 bradykinin receptor of 1 nM. The clearance in data set [8] was 0.3 mL/min/kg. Besides, the t1/2 with Canis familiaris is 3 h. Further, the Ratio in data set [5] (3 h) is given as 2.6.
Consider `Cc1nc(-c2c(F)cc(Cl)cc2-c2cnc([C@@H](C)NC(=O)[C@@](C)(O)C(F)(F)F)c(F)c2)no1`, for which the Papp at 3 h, 5 µM in the data set with MDR1 (human) was determined as 27 ×10⁻⁶ cm/s. Besides, in data set [8], the clearance was 0.5 mL/min/kg.
As for `C[C@@H](NC(=O)C1(O)CC[S+]([O-])C1)c1ncc(-c2cc(Cl)cc(F)c2-c2nnn(C)n2)cc1F` (stereo partly specified), the Papp at 3 h, 5 µM with MDR1 (human) came to 24 ×10⁻⁶ cm/s. The Ki on B1 bradykinin receptor turned out to be 1.6 nM. The molecule further gave a clearance in [8] of 2.3 mL/min/kg. Besides, the half-life in data set [9] is 3.1 h. In [5], the Ratio is listed as 14.3.
Molecule `C[C@@H](NC(=O)[C@@](C)(O)C(F)(F)F)c1ncc(-c2cc(Cl)cc(F)c2-c2noc(CO)n2)cc1F` yielded a Ki at B1 bradykinin receptor of 0.8 nM.
